Earlier results in patent publication USRE38386E1, “Retardation of metalloproteinase incidental to HIV and/or AIDS” (priority 1997, dated 2004).

Tests used:
[1] = test system: endothelial cell monolayers; conditions: incubation of HIV-infected monocytes with the proteinase inhibitor
[2] = test system: 92-kd metalloproteinase (MMP-9)
HIV-infected monocytes = conditions: interferon-gamma at 50 U/ml
HIV = conditions: added to monocytes on day 10 after infection

Row | Substance | increased permeability of endothelial cell monolayers to 125I albumin [1] | inhibition of MMP-9 production ([2]; added to monocytes on day 10 after infection) | levels of MMP-9 ([2]; treated 1 day after HIV infection, vs monocytes inoculated with live HIV, heat-inactivated HIV or uninfected control) | levels of MMP-9 produced by HIV-infected monocytes ([2]; treated 1 day prior to infection with HIV, vs untreated HIV-infected monocytes) | ability of infected monocytes to form an invasive network on matrigel and their invasion through the matrigel matrix (HIV-infected monocytes) | reduction of virus replication (HIV)
1 | TIMP-1: proteinase inhibitor, tissue inhibitor of metalloproteinase | inhibited |  |  |  |  | 
2 | interferon-gamma: interferon-gamma, used to treat HIV-infected monocytes |  | more than threefold | substantially lower | significant reduction | inhibited | no significant reduction
